Source: patent US20030065039A1, “Biologically active 1,3-bis-aromatic-prop-2-en-1-ones, 1,3-bis-aromatic-propan-1-ones, and 1,3-bis-aromatic-prop-2-yn-1-ones” (Statens Serum Institute, priority 1997, published 2003)
Read-outs that look alike come from different tables or passages of the source.

How the values were obtained:
Assay type in all cases: cell-based
Leishmania promastigotes = Leishmania promastigotes Assay; details: read-out: Leishmania IC50 ± SD
Experimental: A WHO reference vaccine strain of L. major originally isolated from a patient in Iran and a Kenyan strain of L. donovani (MHOM(/KE/85/NLB 274) were cultured in medium 199 containing 0.02 mg/ml gentamycin, 25 mM Hepes, 4 mM L-glutamine, and 20% heat inactivated fetal calf serum (FCS). Incubation was carried out at 26° C. Promastigotes were harvested on day 3 and 6 of the culture and used for the parasite growth inhibition.
The effect of the test compounds on promastigotes was assessed by a method similar to the one described by Pearson et al., by incubating promastigotes (3×10^6/ml) at 26° C. for 2 hrs in the presence of a given compound or the medium alone in 96 wells flat bottom microtiter plates. Following incubation, 100 μCi of 3H-thymidine was added to each well and further incubated for 18 hrs. Promastigotes were then harvested on filter paper by means of a cell harvester, extensively washed with distilled water and counted in a scintillation counter. The promastigotes were also counted microscopically and their flagellar motility was assessed.

human lymphocytes = experiment: Lymphocyte Proliferation Assay; details: read-out: Lymphocytes IC50 ± SD
Experimental: Human blood mononuclear cells (BMNC) from heparinized blood were isolated by metrizoate sodium-Ficoll density gradient centrifugation, washed 3 times in RPMI 1640 medium supplemented with 5% FCS and with 400 IU of penicillin plus 400 μg/ml streptomycin. BMNC were resuspended in the medium and cultured in triplicate, 0.63×10^5/ml and 160 μl per vial, in round-bottom microtiter plates with 20 μl of various concentrations of the test compound. Immediately prior to incubation, optimum concentrations of the mitogen phytohaemagglutinin (PHA) and the antigen purified protein derivative of tuberculin (PPD) were added to the cultures in a volume of 20 μl. Unstimulated control cultures were always included. Cultures were incubated for 3 or 7 days. The degree of lymphocyte proliferation was estimated by ^3H-thymidine (1 μCi per well) addition 24 h before the cells were harvested on glass fiber filters by means of a harvesting machine), and ^3H-thymidine incorporation was measured in a liquid scintillation counter. For each set of triplicate values, the median was recorded. Unstimulated cultures were always included as controls.

Plasmodium falciparum = Plasmodium falciparum Assay; details: 3-H-hypoxanthine incorporation, 48 hours, read-out: Plasmodium IC50 ± SD
Experimental: The experiments in which compounds were tested for their ability to inhibit parasite growth were performed by a modification of the method originally described by Jensen et al. (1982). 50 μl of parasitized erythrocytes (parasitemia approximately 1%) in a concentration of 5×10^8/ml and 50 μl of RPMI medium containing different concentrations of the test compound was added to each well of a 96 well flat-bottomed microtiter plate. The cultures were then incubated for 48 hours, 24 hours before termination of the culture adding 20 μl of 3-H-hypoxanthine (40 uCi/ml) was added to each well. The cultures were then harvested onto glass fiber filters using a Skatron cell harvester, and the incorporation of 3-H-hypoxanthine into the DNA of dividing parasites was determined by liquid scintillation spectrometry. Control cultures with uninfected erythrocytes and infected erythrocytes in RPMI medium without test compounds were always performed in parallel to the test cultures. In some experiments thin smears of parasite cultures were stained by Giemsa and examined under microscope (×1000). The test compounds described above, were diluted in RPMI medium immediately before use. In the experiments, chloroquine phosphate was used as a positive control as a drug known to inhibit parasite growth.

[1] = Leishmania, promastigotes, 3H-thymidine uptake
[2] = Lymphocyte, PHA provoked proliferation of human lymphocytes
[3] = promastigotes, 3H-thymidine uptake
[4] = PHA provoked proliferation of human lymphocytes

| Compound | IC50 (Leishmania promastigotes; [1]) [µM] | IC50 (human lymphocytes; [2]) [µM] | IC50 (Plasmodium falciparum; Plasmodium falciparum) [µM] | IC50 (Leishmania promastigotes; [3]) [µM] | IC50 (human lymphocytes; [4]) [µM] | IC50 (Plasmodium falciparum) [µM] | also measured |
| --- | --- | --- | --- | --- | --- | --- | --- |
| C=CCOc1ccc(C(=O)/C=C/c2cc(OC)c(CCCCCC)c(OC)c2)cc1 [4-C6H13-3,5-OCH3-4′-allyloxy, 4-hexyl-3,5-dimethoxy-4′-(2-propenyloxy)chalcone] | 19 ± 4 | 15 ± 1 | 11 |  |  |  |  |
| COc1cc(OC)c(OC)cc1/C=C/C(=O)c1ccc(O)cc1 [2,4,5,-OCH3-4′-OH] |  |  |  | 16 ± 2 | 28 ± 2 | 13 |  |
| C=CCOc1ccc(C(=O)/C=C/c2cc(OC)c(OC)c(OC)c2)cc1 [3,4,5-OCH3-4′-allyloxy] |  |  |  | 41 ± 4 | 30 ± 1 |  |  |
| COc1ccc(C(=O)/C=C/c2cccc(F)c2)c(OC)c1OC [3-F-2′,3′,4′-OCH3, 3-fluoro-2′,3′,4′-trimethoxychalcone] | 9.7 ± 0.9 | 6.4 ± 0.4 | 29 |  |  |  |  |
| O=C(/C=C/c1ccc(F)cc1)c1ccc(F)cc1 [4′,4-F, 4,4′-difluorochalcone] | 15 ± 2 | 22 ± 1 | 43 |  |  |  |  |
| COc1ccc(/C=C/C(=O)c2ccccc2O)c(OC)c1 [2,4-OCH3-2′-OH] |  |  |  | 35 ± 2 | 144 ± 9 | 28 |  |
| COc1ccc(OC)c(/C=C/C(=O)c2ccc(O)cc2)c1 [2,5-OCH3-4′-OH, 2,5-dimethoxy-4′hydroxychalcone] | 23 ± 2 | 22 ± 1 |  |  |  |  |  |
| CCCCCCOc1ccc(C(=O)/C=C/c2ccccc2)cc1 [4′-OC6H13] |  |  |  | 62 ± 5 | 99 ± 7 | 17 |  |
| COc1ccc(/C=C/C(=O)c2ccc(F)cc2F)c(OC)c1 [2′,4′-F-2,4-OCH3] |  |  |  | 26 ± 2 | 74 ± 4 | 49 |  |
| COc1ccc(/C=C/C(=O)c2ccccc2)c(OC)c1 [2,4-OCH3] |  |  |  | 15 | 48 ± 2 | 34 |  |
| COc1cc(O)ccc1/C=C/C(=O)c1ccc(N(C)C)cc1 [2-OCH3-4-OH-4′-N(CH3)2] |  |  |  | 49 ± 4 | 111 ± 7 | 23 |  |
| O=C(/C=C/c1ccccc1)c1ccc(F)cc1 [4′-F, 4′-fluorochalcone] | 15 ± 1 | 23 ± 2 | 51 |  |  |  |  |
| COc1ccc(C(=O)/C=C/c2cccc(Oc3ccccc3)c2)c(OC)c1OC [3-OC6H5-2′,3′,4′-OCH3, 3-phenoxy-2′,3′,4′-trimethoxychalcone] | 8.7 ± 0.5 | 17 ± 1 | 8.9 |  |  |  |  |
| COc1cc(O)ccc1/C=C/C(=O)c1ccc(O)cc1 [2-OCH3-4,4′-OH, 2-methoxy-4,4′-dihydroxychalcone] | 68 ± 4 | 94 ± 4 | 19 |  |  |  |  |
| COc1ccc(/C=C/C(=O)c2cccc(Br)c2)c(OC)c1 [3′-Br-2,4-OCH3] |  |  |  | 16 ± 1 | 37 ± 2 | 17 |  |
| COc1cc(O)cc(C)c1/C=C/C(=O)c1ccc(O)cc1 [2-OCH3-4,4′-OH-6-methyl, 2-methoxy-4,4′-dihydroxy-6-methylchalcone] | 39 ± 5 | 53 ± 6 | 28 |  |  |  |  |
| C=CCOc1ccccc1C(=O)/C=C/c1ccc(OC)cc1OC [2,4-OCH3-2′-allyloxy] |  |  |  | 5 ± 0.7 |  |  |  |
| O=C(/C=C/c1ccc(O)cc1)c1ccc(O)cc1 [4′-4-OH] |  |  |  | 83 ± 5 | 59 ± 3 | 17 |  |
| COc1cccc(/C=C/C(=O)c2ccc(O)cc2)c1OC [2,3-OCH3-4′-OH, 2,3-dimethoxy-4′-hydroxychalcone] | 89 ± 9 | 70 ± 4 | 25 |  |  |  |  |

| Compound | IC50 (Leishmania promastigotes; [1]) [µM] | IC50 (human lymphocytes; [2]) [µM] | IC50 (Plasmodium falciparum; Plasmodium falciparum) [µM] | IC50 (Leishmania promastigotes; [3]) [µM] | IC50 (human lymphocytes; [4]) [µM] | IC50 (Plasmodium falciparum) [µM] | also measured |
| --- | --- | --- | --- | --- | --- | --- | --- |
| CCCCOc1ccc(C(=O)/C=C/c2cc(OC)cc(OC)c2)cc1 [3,5-OCH3-4′-OC4H9] |  |  |  | 35 ± 3 | 52 ± 3 | 17 |  |
| C=CCOc1ccc(C(=O)/C=C/c2c(OC)cccc2OC)cc1 [2,6-OCH3-4′-allyloxy] |  |  |  | 81 ± 7 | 96 ± 8 |  |  |
| CCCCOc1ccc(C(=O)/C=C/c2ccc(OC)cc2OC)cc1 [2,4-OCH3-4′-OC4H9, 2,4-dimethoxy-4′-butoxychalcone] | 95 ± 10 |  |  |  |  |  |  |
| C=CCOc1ccc(C(=O)/C=C/c2cc(OC)c(CCCC)c(OC)c2)cc1 [4-C4H9-3,5-OCH3-4′-allyloxy, 4-butyl-3,5-dimethoxy-4′-(2-propenyloxy)chalcone] | 90 ± 14 |  |  |  |  |  |  |
| COc1cccc(OC)c1/C=C/C(=O)c1ccc(O)cc1 [2,6-OCH3-4′-OH] |  |  |  | 82 ± 8 | 60 ± 2 |  |  |
| CCCCOc1ccc(C(=O)/C=C/c2c(OC)cccc2OC)cc1 [2,6-OCH3-4′-OC4H9, 2,6-dimethoxy-4′-butoxychalcone] | 104 ± 9 | 127 ± 10 | 14 |  |  |  |  |
| O=C(/C=C/c1ccc(O)c(O)c1)c1ccc(O)cc1O [2′,4′,3,4-OH] |  |  |  | 66 ± 2 | 16 ± 1 | 49 |  |
| O=C(/C=C/c1ccccc1)c1ccccc1 [Chalcon] | 20 ± 1 | 21 ± 2 | 44 |  |  |  |  |
| C=CCOc1ccc(C(=O)/C=C/c2cc(OC)ccc2OC)cc1 [2,5-OCH3-4′-allyloxy] |  |  |  | 73 ± 4 | 55 ± 2 | 23 |  |
| COc1ccc(/C=C/C(=O)c2ccccc2Br)c(OC)c1 [2′-Br-2,4-OCH3, 2,4-dimethoxy-2′-bromochalcone] | 14 ± 2 | 35 ± 3 | 26 |  |  |  |  |
| O=C(/C=C/c1ccc(F)cc1)c1ccc(C2CCCCC2)cc1 [4′-cC6H11-4-F, 4-fluoro-4′-cyclohexylchalcone] | 27 ± 2 | 74 ± 2 |  |  |  |  |  |
| COc1cc(OC)c(/C=C/C(=O)c2ccc(O)cc2)c(OC)c1 [2,4,6-OCH3-4′-OH] |  |  |  | 106 ± 8 | 44 ± 2 |  |  |
| CN(C)c1ccc(/C=C/C(=O)c2ccc(O)cc2)cc1 [4-N(CH3)2-4′-OH] |  |  |  | 79 ± 6 | 130 ± 13 |  |  |
| CN(C)c1ccc(C(=O)/C=C/c2ccc([N+](=O)[O-])cc2)cc1 [4′-N(CH3)2-4-NO2, 4-nitro-4′-dimethylaminochalcone] |  |  | 93 |  |  |  |  |
| COc1ccc(/C=C/C(=O)c2ccccc2OC)c(OC)c1 [2,4,2′-OCH3] |  |  |  | 16 ± 1 | 26 ± 2 |  |  |
| COc1ccc(OC)c(C(=O)/C=C/c2ccc(Cl)cc2Cl)c1 [2′,5′-OCH3-2,4-Cl] |  |  |  | 7.8 ± 0.7 | 5.7 ± 0.5 |  |  |
| O=C(/C=C/c1ccc([N+](=O)[O-])cc1)c1ccc([N+](=O)[O-])cc1 [4′,4-NO2, 4,4′-dinitro-chalcone] |  |  |  |  |  |  | IC50 (Leishmania promastigotes; Leishmania): 26 ± 4 µM; IC50 (human lymphocytes; Homo sapiens, Lymphocyte): 51 ± 3 µM |
| CCCCCCOc1ccc(C(=O)/C=C/c2ccc(OC)cc2OC)cc1 [2,4-OCH3-4′-OC6H13] |  |  |  | 136 ± 15 |  | 14 |  |
| C=CCOc1ccc(C(=O)/C=C/c2cc(OCC=C)ccc2OCC=C)cc1 [2,5,4′-allyloxy] |  |  |  | 38 ± 2 | 61 ± 3 |  |  |
